Measurements taken from patent USRE42890E1, “Furazanobenzimidazoles” (Basilea Pharmaceutica AG, priority 2003, dated 2011).
Where two headings read alike, the source gives them in different places.

How the values were obtained:
Jurkat [1] = experiment: MTS proliferation assay, Jurkat; format: cell-based, human; conditions: 72 h incubation, read-out: MTS proliferation assay IC 50 Jurkat
Method in brief: (§1)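 Cells were seeded 24 h before treatment and exposed to compound at 10, 3, 1 and 0.3 μM final for 72 h at 37 °C, 7.5% CO2 in RPMI-1640 with 5% or 10% FCS. Viability was read by MTS reagent (3 h) as absorbance at 492 nm.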

Jurkat [2] = experiment: PI staining for cell cycle distribution, Jurkat; format: cell-based, human; parameters: key: 0: no effect; 1: weak effect; 2: strong effect; conditions: Jurkat 3 μM, 24 h; for PI staining for cell cycle distribution, G2M: cell population arrested in G2M phase; for PI staining for cell cycle distribution, subG1: subG1 peak indicative for DNA fragmentation
Method: (§2) Cell lines are cultured in RPMI-1640 tissue culture medium containing either 5% or 10% fetal calf serum, 0.05 mM 2-mercaptoethanol, 2 mM glutamine and penicillin/streptomycin 50 μg/ml (complete medium) (Sigma, Buchs, Switzerland). General growth conditions are 37° C. and 7.5% CO2.
(§3) The following human cell lines (either EGFP transfected or not) are being used: HeLa (ATCC: CCL-2), KB (ATCC: CCL-17), MCF7 (ATCC: HTB-22), SK-BR-3 (ATCC: HTB-30), SK-Mel 1 (ATCC: HTB-67), SK-Mel 28 (ATCC: HTB-72), PC-3 (ATCC: CRL-1435), SW 480 (ATCC: CCL-228), NCl-H460 (ATCC: HTB-177), NCl-H1792 (ATCC: CRL-5895), HT1080 (ATCC: CCL-21), Jurkat (ATCC: TIB-152), Ramos (ATCC: CRL-1596), Raji (ATCC: CCL-86), H9 (ATCC: HTB-176), Hut78 (ATCC: TIB-161), K562 (ATCC: CCL 243), HL-60 (ATCC: CCL 240), U-87MG (ATCC: HTB-14), HepG2 (ATCC: HB-8065), U-2 OS (ATCC: HTB-96), Saos-2 (ATCC: HTB-85), U937 (ATCC: CRL 1593), Hs 578T (ATCC: HTB 126), HBL-100 (ATCC: HTB 124), Molt-4 (ATCC: CRL 1582).
(§4) 1-2*10^5 cells are seeded into 24 well tissue culture plates and incubated for 24 h prior to compound addition. Compounds are added for 24 h in a final concentration of 3 μM or 10 μM. Adherent cells are harvested by trypsinization. The cell suspensions are fixed by adding 2 parts ice cold ethanol 100% while vortexing. Then the samples are stored for >2 h at −20° C. Subsequently the cells are washed with PBS once and resuspended in 250 μl PBS containing 50 μg/ml PI (Calbiochem # 537059), then the samples are incubated at 37° C. for 30 minutes and subsequently analyzed on a FACSCalibur™ monitoring linear PI fluorescence activity on FL2. The readout allows the detection of a possible direct or indirect influence of the tested compounds on the cell cycle. The following events can occur: a) Generation of a subG1 peak indicative for DNA fragmentation, b) increase of the cell population arrested in G2M phase. Both events are scored by 1 for weak and 2 for strong occurrence. 0 indicates no occurrence at all.

MRC5 = experiment: MTS proliferation assay, MRC5; format: cell-based; conditions: MRC5, 72 h incubation, read-out: MTS proliferation assay IC 50 MRC5
Method in brief: (§5)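 Cells in RPMI-1640 with 5% or 10% FCS, 2-mercaptoethanol and glutamine were seeded 24 h before treatment with compound at final 10, 3, 1 and 0.3 μM. After 72 h at 37° C and 7.5% CO2, MTS reagent was added for 3 h and absorbance read at 492 nm.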

HeLa [3] = experiment: PI staining for cell cycle distribution, HeLa; format: cell-based, human; parameters: key: 0: no effect; 1: weak effect; 2: strong effect; conditions: HeLa 10 μM, 24 h; for PI staining for cell cycle distribution, G2M: cell population arrested in G2M phase; for PI staining for cell cycle distribution, subG1: subG1 peak indicative for DNA fragmentation
Method: as §2, §3, §4

HeLa [4] = experiment: MTS proliferation assay, HeLa; format: cell-based, human; conditions: 72 h incubation, read-out: MTS proliferation assay IC 50 HeLa
Method in brief: as §1

[5] = test system: adherent cells or suspension cells; experiment: Hoechst 33342 nuclear staining (fraction of apoptotic nuclei); format: cell-based; parameters: key: 0 relating to no activity; 1 relating to weak activity comprising less than 70% of the cells; score 2 relating to strong activity comprising more than 70% of the cells
HT1080 = experiment: MTS proliferation assay, HT1080; format: cell-based, human; conditions: Homo sapiens, HT-1080; HT1080, 72 h incubation; read-out: MTS proliferation assay IC 50 HT1080
Method in brief: as §1

Jily = experiment: MTS proliferation assay, Jily; format: cell-based; conditions: 72 h incubation, read-out: MTS proliferation assay IC 50 Jily
Method in brief: as §5

| SMILES | IC50 (Jurkat [1]) [nM] | PI staining for cell cycle distribution, G2M (Jurkat [2]) | Hoechst 33342 nuclear staining score ([5]; H460, conc 0.01 μm) | Hoechst 33342 nuclear staining score ([5]; H460, conc 0.1 μm) | Hoechst 33342 nuclear staining score ([5]; H460, conc 1 μm) | Hoechst 33342 nuclear staining score ([5]; HeLa, conc 0.01 μm) | Hoechst 33342 nuclear staining score ([5]; HeLa, conc 0.1 μm) | Hoechst 33342 nuclear staining score ([5]; HeLa, conc 1 μm) | Hoechst 33342 nuclear staining score ([5]; Jily, conc 0.01 μm) | Hoechst 33342 nuclear staining score ([5]; Jily, conc 0.1 μm) | Hoechst 33342 nuclear staining score ([5]; Jily, conc 1 μm) | Hoechst 33342 nuclear staining score ([5]; Jurkat, conc 0.01 μm) | Hoechst 33342 nuclear staining score ([5]; Jurkat, conc 0.1 μm) | Hoechst 33342 nuclear staining score ([5]; Jurkat, conc 1 μm) | Hoechst 33342 nuclear staining score ([5]; MRC5, conc 0.01 μm) | Hoechst 33342 nuclear staining score ([5]; MRC5, conc 0.1 μm) | Hoechst 33342 nuclear staining score ([5]; MRC5, conc 1 μm) | Hoechst 33342 nuclear staining score ([5]; PBLs, conc 0.01 μm) | Hoechst 33342 nuclear staining score ([5]; PBLs, conc 0.1 μm) | Hoechst 33342 nuclear staining score ([5]; PBLs, conc 1 μm) | also measured |
| --- | --- | --- | --- | --- | --- | --- | --- | --- | --- | --- | --- | --- | --- | --- | --- | --- | --- | --- | --- | --- | --- |
| Nc1nonc1-c1nc2ccccc2n1CC(=O)c1ccc(Br)cc1 [Example 29] | 10 to 100 | 0 | 0 | 0 | 2 (score 2 relating to strong activity comprising more than 70% of the cells) | 0 | 1 (1 relating to weak activity comprising less than 70% of the cells) | 2 (score 2 relating to strong activity comprising more than 70% of the cells) | 0 | 2 (score 2 relating to strong activity comprising more than 70% of the cells) | 2 (score 2 relating to strong activity comprising more than 70% of the cells) | 0 | 2 (score 2 relating to strong activity comprising more than 70% of the cells) | 2 (score 2 relating to strong activity comprising more than 70% of the cells) | 0 | 2 (score 2 relating to strong activity comprising more than 70% of the cells) | 2 (score 2 relating to strong activity comprising more than 70% of the cells) | 0 | 0 | 0 | PI staining for cell cycle distribution, subG1 (Jurkat [2]): 0; IC50 (MRC5): 10 to 100 nM; PI staining for cell cycle distribution, G2M (HeLa [3]): 2; PI staining for cell cycle distribution, subG1 (HeLa [3]): 0; IC50 (HeLa [4]): 10 to 100 nM |
| CON=C(Cn1c(-c2nonc2N)nc2ccccc21)c1ccc(Br)cc1 (mixture of isomers) [Example 30] | 100 to 1000 | 0 | 0 | 0 | 0 | 0 | 0 | 1 (1 relating to weak activity comprising less than 70% of the cells) | 0 | 0 | 1 (1 relating to weak activity comprising less than 70% of the cells) | 0 | 0 | 2 (score 2 relating to strong activity comprising more than 70% of the cells) | 0 | 0 | 2 (score 2 relating to strong activity comprising more than 70% of the cells) | 0 | 0 | 0 | PI staining for cell cycle distribution, subG1 (Jurkat [2]): 0; IC50 (MRC5): 100 to 1000 nM; PI staining for cell cycle distribution, G2M (HeLa [3]): 2; PI staining for cell cycle distribution, subG1 (HeLa [3]): 0; IC50 (HeLa [4]): 100 to 1000 nM |
| COCOc1ccc(C(=O)Cn2c(-c3nonc3N)nc3ccccc32)cc1OC [Example 15, 4-[1-(3-Methoxy-4-methoxymethoxy-phenacyl)-1H-benzimidazol-2-yl]-furazan-3-ylamine] |  |  | 2 (score 2 relating to strong activity comprising more than 70% of the cells) | 2 (score 2 relating to strong activity comprising more than 70% of the cells) | 2 (score 2 relating to strong activity comprising more than 70% of the cells) | 1 (1 relating to weak activity comprising less than 70% of the cells) | 2 (score 2 relating to strong activity comprising more than 70% of the cells) | 2 (score 2 relating to strong activity comprising more than 70% of the cells) | 2 (score 2 relating to strong activity comprising more than 70% of the cells) | 2 (score 2 relating to strong activity comprising more than 70% of the cells) | 2 (score 2 relating to strong activity comprising more than 70% of the cells) | 2 (score 2 relating to strong activity comprising more than 70% of the cells) | 2 (score 2 relating to strong activity comprising more than 70% of the cells) | 2 (score 2 relating to strong activity comprising more than 70% of the cells) | 0 | 1 (1 relating to weak activity comprising less than 70% of the cells) | 2 (score 2 relating to strong activity comprising more than 70% of the cells) | 0 | 0 | 0 | IC50 (Jurkat [1]; Homo sapiens): < 10 nM; IC50 (MRC5; Homo sapiens): < 10 nM; IC50 (HT1080): < 10 nM; IC50 (HeLa [4]; Homo sapiens): 10 to 100 nM; IC50 (Jily): < 10 nM |
